Laboratory results published in US20150218212A1, “FLUORINATED EPOXYKETONE-BASED TETRAPEPTIDE COMPOUNDS AND USES THEREOF AS PROTEASOME INHIBITORS” (FLUORINOV PHARMA INC., priority 2012, published 2015).

Assays:
RPMI-8226 = assay: NCI screening panel, RPMI-8226 (Leukemia); assay type: cell-based, human
Procedure: (§1) Representative compounds of Formula I were screened using the National Cancer Institute (NCI) screening panel, which consists of a panel of human tumor cell lines, representing leukemia, melanoma, and cancers of the lung, colon, ovary, breast, prostate and renal system.
(§2) After 24 h, two plates of each cell line are fixed in situ with TCA, to represent a measurement of the cell population for each cell line at the time of drug addition (Tz). Experimental drugs are solubilised in dimethyl sulfoxide at 400-fold the desired final maximum test concentration and stored frozen prior to use. At the time of drug addition, an aliquot of frozen concentrate is thawed and diluted to twice the desired final maximum test concentration with complete medium containing 50 μg/mL gentamicin. Additional four, 10-fold or ½ log serial dilutions are made to provide a total of five drug concentrations plus control. Aliquots of 100 μl of these different drug dilutions are added to the appropriate microtiter wells already containing 100 μl of medium, resulting in the required final drug concentrations.
(§3) Following drug addition, the plates are incubated for an additional 48 h at 37° C., 5% CO2, 95% air, and 100% relative humidity. For adherent cells, the assay is terminated by the addition of cold TCA (trichloroacetic acid). Cells are fixed in situ by the gentle addition of 50 μl of cold 50% (w/v) TCA (final concentration, 10% TCA) and incubated for 60 minutes at 4° C. The supernatant is discarded, and the plates are washed five times with tap water and air dried. Sulforhodamine B (SRB) solution (100 μl) at 0.4% (w/v) in 1% acetic acid is added to each well, and plates are incubated for 10 minutes at room temperature. After staining, unbound dye is removed by washing five times with 1% acetic acid and the plates are air dried. Bound stain is subsequently solubilised with 10 mM trizma base, and the absorbance is read on an automated plate reader at a wavelength of 515 nm. For suspension cells, the methodology is the same except that the assay is terminated by fixing settled cells at the bottom of the wells by gently adding 50 μl of 80% TCA (final concentration, 16% TCA). Using the seven absorbance measurements [time zero, (Tz), control growth, (C), and test growth in the presence of drug at the five concentration levels (Ti)], the percentage growth is calculated at each of the drug concentrations levels. Percentage growth inhibition is calculated as: [(Ti−Tz)/(C−Tz)]×100 for concentrations for which Ti>/=Tz and [(Ti−Tz)/Tz]×100 for concentrations for which Ti<Tz.
(§4) Three dose response parameters are calculated for each experimental agent. Growth inhibition of 50% (GI50) is calculated from [(Ti−Tz)/(C−Tz)]×100=50, which is the drug concentration resulting in a 50% reduction in the net protein increase (as measured by SRB staining) in control cells during the drug incubation. The drug concentration resulting in total growth inhibition (TGI) is calculated from Ti=Tz. The LC50 (concentration of drug resulting in a 50% reduction in the measured protein at the end of the drug treatment as compared to that at the beginning) indicating a net loss of cells following treatment is calculated from [(Ti−Tz)/Tz]×100=−50. Values are calculated for each of these three parameters if the level of activity is reached. However, if the effect is not reached or is exceeded, the value for that parameter is expressed as greater or less than the maximum or minimum concentration tested.

HS 578T = assay: NCI screening panel, HS 578T (Breast Cancer); assay type: cell-based, human
Procedure: as §1, §2, §3, §4

MM.1S tumor cells = assay: Inhibition of tumor growth in myeloma MM.1S mouse xenograft model; assay type: in vivo; settings: MM.1S xenograft mice
Procedure: The mice were irradiated (200 rads) using a Co60 irradiator source. After 24 hrs, each mouse was inoculated subcutaneously with 5×10^6 MM.1S tumor cells in 0.1 mL PBS for tumor development. Treatments were started when the tumor volume reached 100 mm^3. Each treatment group consisted of 10 mice. The test articles of compounds of Formula I were administrated to the tumor-bearing mice according to a specific predetermined regimen.

HL-60(TB) = assay: NCI screening panel, HL-60(TB) (Leukemia); assay type: cell-based, human
Procedure: as §1, §2, §3, §4

HOP-92 = assay: NCI screening panel, HOP-92 (Non-Small Cell Lung Cancer); assay type: cell-based, human
Procedure: as §1, §2, §3, §4

CCRF-CEM = assay: NCI screening panel, CCRF-CEM (Leukemia); assay type: cell-based, human
Procedure: as §1, §2, §3, §4

Row | SMILES | Log10GI50 (RPMI-8226) | Log10LC50 (RPMI-8226) | Log10TGI50 (RPMI-8226) | Log10GI50 (HS 578T) | Log10LC50 (HS 578T) | Log10TGI50 (HS 578T) | gross adverse effects including reductions in body weight or alterations in behaviour (MM.1S tumor cells; 4 mg/kg i.v, days 1, 3, 5/wk×28 days) | gross adverse effects including reductions in body weight or alterations in behaviour (MM.1S tumor cells; 8 mg/kg i.v, days 1, 2/wk×4 wks) | Log10GI50 (HL-60(TB)) | Log10LC50 (HL-60(TB)) | Log10TGI50 (HL-60(TB)) | Log10GI50 (HOP-92) | Log10LC50 (HOP-92) | Log10TGI50 (HOP-92) | Log10GI50 (CCRF-CEM) | Log10LC50 (CCRF-CEM) | Log10TGI50 (CCRF-CEM)
1 | CC(C)C[C@H](NC(=O)[C@H](COC(F)F)NC(=O)CN1CCOCC1)C(=O)N[C@@H](COC(F)F)C(=O)N[C@@H](CC(C)C)C(=O)[C@@]1(C)CO1 [Example 1, (2S)—N-[(1S)-1-(difluoromethoxymethyl)-2-[[(1S)-3-methyl-1-[(2R)-2-methyloxirane-2-carbonyl]butyl]amino]-2-oxo-ethyl]-2-[[(2S)-3-(difluoromethoxy)-2-[(2-morpholinoacetyl)amino]propanoyl]amino]-4-methyl-pentanamide] | −7.56 | >−4.00 | −7.05 | −7.72 | >−4.00 | −7.01 | no gross adverse effects | no gross adverse effects | −7.49 | >−4.00 | −6.30 | −7.74 | −6.50 | −7.30 | – | – | –
2 | CC(C)C[C@H](NC(=O)[C@H](COC(F)F)NC(=O)CN1CCOCC1)C(=O)N[C@@H](Cc1ccccc1)C(=O)N[C@@H](CC(C)C)C(=O)[C@@]1(C)CO1 [Example 2, (2S)-N-[(1S)-1-benzyl-2-[[(1S)-3-methyl-1-[(2R)-2-methyloxirane-2-carbonyl]butyl]-amino]-2-oxo-ethyl]-2-[[(2S)-3-(difluoromethoxy)-2-[(2-morpholinoacetyl)amino]propanoyl]amino]-4-methyl-pentanamide] | −7.98 | >−4.00 | −7.24 | −7.71 | – | >−4.00 | – | – | −7.55 | >−4.00 | −6.11 | – | – | – | – | – | –
3 | CC(C)C[C@H](NC(=O)[C@H](COC(F)F)NC(=O)CN1CCOCC1)C(=O)N[C@@H](Cc1ccccc1)C(=O)N[C@@H](Cc1ccccc1)C(=O)[C@@]1(C)CO1 [Example 3, (2S)-N-[(1S)-1-benzyl-2-[[(1S)-1-benzyl-2-[(2R)-2-methyloxiran-2-yl]-2-oxo-ethyl]amino]-2-oxo-ethyl]-2-[[(2S)-3-(difluoromethoxy)-2-[(2-morpholinoacetyl)-amino]propanoyl]amino]-4-methyl-pentan-amide] | <−8.00 | >−4.00 | −7.48 | <−8.00 | >−4.00 | −7.01 | – | – | −7.83 | >−4.00 | −6.67 | – | – | – | <−8.00 | >−4.00 | −4.88
4 | CC(C)C[C@H](NC(=O)[C@H](COC(F)F)NC(=O)CN1CCOCC1)C(=O)N[C@@H](COC(F)F)C(=O)N[C@@H](Cc1ccccc1)C(=O)[C@@]1(C)CO1 [Example 4, (2S)-N-[(1S)-2-[[(1S)-1-benzyl-2-[(2R)-2-methyloxiran-2-yl]-2-oxo-ethyl]amino]-1-(difluoromethoxymethyl)-2-oxo-ethyl]-2-[[(2S)-3-(difluoromethoxy)-2-[(2-mor-pholinoacetyl)amino]propanoyl]amino]-4 methyl-pentanamide] | −7.51 | >−4.00 | −6.54 | −7.71 | >−4.00 | −7.01 | – | – | −7.44 | >−4.00 | −6.44 | −7.59 | −6.24 | −7.15 | <−8.00 | >−4.00 | >−4.00
5 | CC(C)C[C@H](NC(=O)[C@H](COC(F)F)NC(=O)[C@H](COC(F)F)NC(=O)[C@H](CCc1ccccc1)NC(=O)CN1CCOCC1)C(=O)[C@@]1(C)CO1 [Example 7, (2S)-N-[(1S)-1-(difluoromethoxymethyl)-2-[[(1S)-1-(difluoromethoxymethyl)-2-[[(1S)-3-methyl-1-[(2R)-2-methyloxirane-2-carbo-nyl]butyl]amino]-2-oxo-ethyl]amino]-2-oxo-ethyl]-2-[(2-morpholinoacetyl)amino]-4-phenyl-butanamide] | −7.56 | >−4.00 | −7.04 | −7.70 | >−4.00 | −6.05 | – | – | −7.46 | >−4.00 | −6.48 | −7.71 | −6.54 | −7.28 | <−8.00 | >−4.00 | >−4.00
6 | CC(C)C[C@H](NC(=O)[C@H](Cc1ccccc1)NC(=O)[C@H](COC(F)F)NC(=O)[C@H](COC(F)F)NC(=O)CN1CCOCC1)C(=O)[C@@]1(C)CO1 [Example 11, (2S)-2-[[(2S)-3-(difluoromethoxy)-2-[[(2S)-3-(difluoromethoxy)-2-[(2-morpholinoacetyl)-amino]propanoyl]amino]propanoyl]amino]-N-[(1S)-3-methyl-1-[(2R)-2-methyloxirane-2-carbonyl]butyl]-3-phenyl-propanamide] | −7.65 | >−4.00 | −7.02 | −7.70 | >−4.00 | −6.97 | – | – | −7.46 | >−4.00 | −6.42 | −7.62 | −6.26 | −7.15 | <−8.00 | >−4.00 | −4.57
7 | CC(C)C[C@H](NC(=O)[C@H](COC(F)F)NC(=O)[C@H](COC(F)F)NC(=O)[C@H](COC(F)F)NC(=O)CN1CCOCC1)C(=O)[C@@]1(C)CO1 [Example 17, (2S)-3-(difluoromethoxy)-N-[(1S)-1-(difluoromethoxymethyl)-2-[[(1S)-1-(difluoro-methoxymethyl)-2-[[(1S)-3-methyl-1-[(2R)-2-methyloxirane-2-carbonyl]butyl]amino]-2-oxo-ethyl]amino]-2-oxo-ethyl]-2-[(2-mor-pholinoacetyl)amino]-propanamide] | −7.14 | >−4.00 | -6.15 | −7.15 | >−4.00 | −5.27 | – | – | −6.70 | >−4.00 | −5.87 | −7.56 | −6.02 | −7.01 | −7.39 | >−4.00 | >−4.00
